Assay results: PMC10584496, “Brazilin from Caesalpinia sappan L. as a Proprotein Convertase Subtilisin/Kexin Type 9 (PCSK9) Inhibitor: Pharmacophore-Based Virtual Screening, In Silico Molecular Docking, and In Vitro Studies” (Advances in Pharmacological and Pharmaceutical Sciences, 2023)

Target: T1, Proprotein convertase subtilisin/kexin type 9 (PCSK9) (Homo sapiens, UniProt Q8NBP7)
T1 construct: His-tagged recombinant PCSK9 wild type
Assay: CircuLex PCSK9-LDLR in vitro binding assay kit (plate-based, ELISA-type)

T1 sequence (Q8NBP7 31-152): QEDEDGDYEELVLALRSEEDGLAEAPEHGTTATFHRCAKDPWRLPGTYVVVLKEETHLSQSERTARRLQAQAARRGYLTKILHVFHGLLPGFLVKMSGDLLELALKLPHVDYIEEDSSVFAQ
T1 sequence (Q8NBP7 153-692): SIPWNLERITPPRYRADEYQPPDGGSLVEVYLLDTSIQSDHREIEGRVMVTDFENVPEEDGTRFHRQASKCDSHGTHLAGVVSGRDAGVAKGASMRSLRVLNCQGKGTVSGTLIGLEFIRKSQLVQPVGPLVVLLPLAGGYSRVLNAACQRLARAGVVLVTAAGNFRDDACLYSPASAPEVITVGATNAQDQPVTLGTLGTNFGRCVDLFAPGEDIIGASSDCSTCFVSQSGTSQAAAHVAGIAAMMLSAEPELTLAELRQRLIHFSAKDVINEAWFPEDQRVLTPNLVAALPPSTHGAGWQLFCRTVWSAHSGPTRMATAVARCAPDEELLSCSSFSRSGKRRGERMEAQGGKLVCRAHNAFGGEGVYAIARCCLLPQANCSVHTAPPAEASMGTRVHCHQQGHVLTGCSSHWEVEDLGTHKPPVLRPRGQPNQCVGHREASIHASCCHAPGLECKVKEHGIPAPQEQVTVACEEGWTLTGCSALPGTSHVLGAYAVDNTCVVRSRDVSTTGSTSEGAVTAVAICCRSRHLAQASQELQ
T1 sequence (P01130 22-860 partner): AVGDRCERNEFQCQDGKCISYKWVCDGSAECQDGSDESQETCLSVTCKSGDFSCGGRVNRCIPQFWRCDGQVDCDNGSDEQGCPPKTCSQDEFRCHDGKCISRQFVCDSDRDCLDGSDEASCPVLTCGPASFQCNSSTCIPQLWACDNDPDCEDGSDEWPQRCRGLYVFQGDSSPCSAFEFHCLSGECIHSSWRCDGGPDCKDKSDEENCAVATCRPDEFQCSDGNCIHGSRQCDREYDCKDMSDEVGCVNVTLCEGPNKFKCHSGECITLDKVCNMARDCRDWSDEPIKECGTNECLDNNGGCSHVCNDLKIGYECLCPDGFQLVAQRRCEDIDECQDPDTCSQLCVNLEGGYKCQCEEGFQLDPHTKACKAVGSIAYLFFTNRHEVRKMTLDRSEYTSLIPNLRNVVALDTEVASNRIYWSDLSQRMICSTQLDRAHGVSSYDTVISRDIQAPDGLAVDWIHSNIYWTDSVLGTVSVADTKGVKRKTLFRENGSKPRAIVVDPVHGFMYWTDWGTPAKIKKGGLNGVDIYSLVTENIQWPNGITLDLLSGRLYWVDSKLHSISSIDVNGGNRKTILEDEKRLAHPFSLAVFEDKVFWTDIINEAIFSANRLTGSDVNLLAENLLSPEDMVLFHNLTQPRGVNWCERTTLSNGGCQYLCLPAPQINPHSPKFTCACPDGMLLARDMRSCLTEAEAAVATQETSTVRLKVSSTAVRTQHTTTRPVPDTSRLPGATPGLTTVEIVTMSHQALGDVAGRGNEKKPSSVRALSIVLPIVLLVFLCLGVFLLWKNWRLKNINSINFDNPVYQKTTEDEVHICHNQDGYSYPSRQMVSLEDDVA

IC50: 2190 nM
SMILES: Oc1ccc2c(c1)OC[C@]1(O)Cc3cc(O)c(O)cc3[C@H]21 [brazilin]
